Assay: Drug release test of solid fluorescein sodium-enclosed PMMA hollow device filled with SF6 gas after transplantation into rabbit
Format: in vivo
Details: fluorescence intensity meter, after initial burst, from the first week
Description: In order to prepare a hollow device made of a polymethyl methacrylate (PMMA) resin as an acrylic resin having low oxygen permeability, outer edge portions of optical parts of two PMMA intraocular lenses were bonded with an adhesive, as a trial model. The cavity volume was calculated to be 11.3 μL. One opening part was made without using an adhesive (arrow) (FIG. 3(A), and FIG. 4). In order to examine the drug release property, a 10% aqueous solution of sodium fluorescein as a low-molecular-weight water-soluble fluorescent dye was filled in the cavity of the PMMA hollow device and air-dried (FIG. 3(B)). The solid fluorescein sodium-enclosed PMMA hollow device was placed in 100% SF6 gas, and its hollow portion was filled with the gas (FIG. 3(B)). After a rabbit was anesthetized by intramuscular injection of Ketalar and Selactar, the pupil of the right eye was dilated with a […] hydrochloride ophthalmic solution (Mydrin-P (registered trademark), Santen Pharmaceutical Co., Ltd.). […] The residual amount of gas was measured from the photograph of the anterior ocular segment and the content of fluorescein sodium in the anterior chamber water sample was measured with a fluorescence intensity meter. […]

drug release profile (fluorescein sodium content in anterior chamber water): stable sustained release
SMILES: O=C1OC2(c3ccc(O)cc3Oc3cc(O)ccc32)c2ccccc21 [fluorescein sodium, sodium fluorescein]

Source: patent US11219598B2, “Ophthalmic drug sustained release device” (PUBLIC UNIVERSITY CORPORATION NAGOYA CITY UNIVERSITY, priority 2016, dated 2022)
